The target of one assay is T1, KRAS G12C 1-169, his-tagged protein, GDP-loaded (Homo sapiens, UniProt P01116, G12C).
T1 construct: KRAS G12C 1-169, his-tagged protein, GDP-loaded
T1 sequence (P01116 1-169 isoform P01116-2 G12C): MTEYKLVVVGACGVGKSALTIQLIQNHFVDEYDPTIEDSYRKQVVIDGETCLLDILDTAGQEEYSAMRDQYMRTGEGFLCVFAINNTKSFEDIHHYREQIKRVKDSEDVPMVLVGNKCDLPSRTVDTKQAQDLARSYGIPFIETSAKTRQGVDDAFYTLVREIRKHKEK
The experiment in a line: KRAS G12C covalent binding (% modification) by mass spectrometry, ten or three minute incubation. The settings on record: covalent binding to KRAS G12C after a ten minute incubation period. The essentials: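 GDP-loaded protein in 20 mM Hepes, 150 mM NaCl, 1 mM MgCl2 was incubated with compound (final 100, 30 or 10 μM; 2% DMSO) at room temperature, then quenched with formic acid. Intact-protein LC-MS with charge-envelope deconvolution gave masses and intensities of modified and unmodified species.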
Take `C=CC(=O)N1C[C@H](C)N(c2nc(N3CC(N(C)C)C3)nc3c(F)c(-c4c(C)ccc5[nH]ncc45)c(Cl)cc23)C[C@H]1C` [Compound 54, 1-((2R,5S)-4-(6-chloro-2-(3-(dimethylamino)azetidin-1-yl)-8-fluoro-7-(5-methyl-1H-indazol-4-yl)quinazolin-4-yl)-2,5-dimethylpiperazin-1-yl)prop-2-en-1-one]: the Binding % entry was “+++ (+++ indicates binding activity greater than 90%)”.
As for `C=CC(=O)N1C[C@@H](C)N(c2nc(N3CC(N(C)C)C3)nc3c(F)c(-c4c(O)cccc4F)c(Cl)cc23)C[C@H]1C` [Compound 80, 1-((2R,5R)-4-(6-chloro-2-(3-(dimethylamino)azetidin-1-yl)-8-fluoro-7-(2-fluoro-6-hydroxyphenyl)quinazolin-4-yl)-2,5-dimethylpiperazin-1-yl)prop-2-en-1-one], the Binding % entry was “+ (+ indicates binding activity greater than 0% and up to 50%)”.
`C=CC(=O)N1C[C@@H](C)N(c2nc(N3CC(N(C)C)C3)nc3c(F)c(-c4c(O)cccc4F)c(Cl)cc23)C[C@@H]1C` [Compound 81, 1-((2S,5R)-4-(6-chloro-2-(3-(dimethylamino)azetidin-1-yl)-8-fluoro-7-(2-fluoro-6-hydroxyphenyl)quinazolin-4-yl)-2,5-dimethylpiperazin-1-yl)prop-2-en-1-one]: the Binding % result is “+ (+ indicates binding activity greater than 0% and up to 50%)”.
Consider `C=CC(=O)N1CCN(c2nc(N3CC(N(C)C)C3)nc3c(F)c(-c4c(O)cccc4F)c(Cl)cc23)C[C@@H]1C` [Compound 82, 1-((2S)-4-(6-chloro-2-(3-(dimethylamino)azetidin-1-yl)-8-fluoro-7-(2-fluoro-6-hydroxyphenyl)quinazolin-4-yl)-2-methylpiperazin-1-yl)prop-2-en-1-one], for which the Binding % entry is listed as “++ (++ indicates binding activity from 50 to 90%)”.

The same assay, now with this note: covalent binding to KRAS G12C, % modification after a three minute incubation period.
Consider `C=CC(=O)N1C[C@@H](C)N(c2nc(N3CC(N(C)C)C3)nc3c(F)c(-c4c(O)cccc4F)c(Cl)cc23)C[C@H]1C` [Compound 86, 1-((2R,5R)-4-(6-chloro-2-(3-(dimethylamino)azetidin-1-yl)-8-fluoro-7-(2-fluoro-6-hydroxyphenyl)quinazolin-4-yl)-2,5-dimethylpiperazin-1-yl)prop-2-en-1-one], for which the Binding % result was “+ (+ indicates binding activity greater than 0% and up to 50%)”.
Consider `C=CC(=O)N1C[C@@H](C)N(c2nc(N3CC(N(C)C)C3)nc3c(F)c(-c4c(O)cccc4F)c(Cl)cc23)C[C@@H]1C` [Compound 87, 1-((2S,5R)-4-(6-chloro-2-(3-(dimethylamino)azetidin-1-yl)-8-fluoro-7-(2-fluoro-6-hydroxyphenyl)quinazolin-4-yl)-2,5-dimethylpiperazin-1-yl)prop-2-en-1-one], for which the Binding % entry was “+ (+ indicates binding activity greater than 0% and up to 50%)”.
As for `C=CC(=O)N1C[C@H](C)N(c2nc(OCCN3CC(F)(F)C3)nc3c(F)c(-c4c(O)cccc4F)c(Cl)cc23)C[C@H]1C` [Compound 89, 1-((2R,5S)-4-(6-chloro-2-(2-(3,3-difluoroazetidin-1-yl)ethoxy)-8-fluoro-7-((R)-2-fluoro-6-hydroxyphenyl)quinazolin-4-yl)-2,5-dimethylpiperazin-1-yl)prop-2-en-1-one], the Binding % entry is “+ (+ indicates binding activity greater than 0% and up to 50%)”.
Take `C=CC(=O)N1C[C@H](C)N(c2nc(N3CC(N(C)C)C3)nc3c(F)c(-c4c(O)cccc4F)c(Cl)cc23)C[C@@H]1C` [Compound 94, 1-((2S,5S)-4-(6-chloro-2-(3-(dimethylamino)azetidin-1-yl)-8-fluoro-7-(2-fluoro-6-hydroxyphenyl)quinazolin-4-yl)-2,5-dimethylpiperazin-1-yl)prop-2-en-1-one]: the Binding % entry was “+ (+ indicates binding activity greater than 0% and up to 50%)”.

Source of the values: patent publication US11021470B2, “2-substituted quinazoline compounds comprising a substituted heterocyclic group and methods of use thereof” (Araxes Pharma LLC, priority 2015, dated 2021).
